We go through 2 compounds from US8133902B2, “Ammosamides as anticancer agents” (The Regents of the University of California, priority 2007, dated 2012).

What all share (format): cell-based
For assay [1], the system named is HCT-116 colon carcinoma. Nature of the assay: in vitro cytotoxicity against HCT-116 colon carcinoma. As to conditions: Homo sapiens. The text has this:
Compounds IA and IB are isolated in a pure form from a marine-derived actinomycete strain CNR698. More specifically, compound IA is obtained from the marine-derived actinomycete strain CNR698, and is the first natural product to contain a […] functionality. Compound IB is obtained from the marine-derived actinomycete strain CNR698. The actinomycete was obtained from a marine sediment. Briefly, the actinomycete, identified as a Streptomyces strain (CNR-698) was isolated from bottom sediments collected at a depth of 300 meters in the Bahamas Islands. […] Subsequent cytotoxicity-guided (HCT-116) fractionation by C18 flash chromatography and RP-HPLC led to the isolation of ammosamides A (compound IA) and B (compound IB) as dark blue and blue-purple, respectively (3 and 4 mg/L)
Accordingly, in some embodiments of the invention, compounds IA and IB are used for making pharmaceutical compositions comprising either or both of the two compounds and a pharmaceutically acceptable carrier. In addition, the pharmaceutical compositions can optionally comprise one or more additional anticancer agent(s).
Activity of probe 4 (FIG. 1) was compared to that of ammosamide A (1 on FIG. 1). […] Florescence microscopy was then used to examine the uptake of probe 4, which was concentrated within HeLa, HCT-116 and PC-3 cells within minutes (FIG. 2). The entire fluorescence from addition of 1 mL of 1 μM in […] appeared within the cell.

Assay [2] deals with HeLa, HCT-116 and PC-3 cells. Put plainly: live cell fluorescence microscopy, retention and localization. As to conditions: pretreatment with 1 mL DMEM containing 10 μM. As to the method:
HeLa cells (ATCC CCL-2) were cultured in phenol red-free Dulbecco's modification of Eagle's medium (DMEM) with 4.5 g/L glucose, […] and 5% heat inactivated fetal calf serum (FCS) in glass-bottom dishes. The cells were synchronized using a double thymidine block. Phenol red, a common additive in DMEM, was not used during the culturing or experimentation. Fluorescent images were collected on a Nikon TE 2000 using irradiation with a mercury vapor lamp (Nikon), filtration through a dichroic filter set (FF409, Semrock) with an excitation at 377±50 nm, dichroic with >98% reflection at 344-404 nm and >98% transmission at 415-570 nm, and emission filter at 447±60 nm, focusing with an Oil Immersion Epiplan 60× objective (Zeiss), and image collection with an SPOT RT-KE color CCD Camera (Diagnostic Instruments Inc.).
The results of the study of the activity are discussed below with the reference to FIG. 2. […]
Live cell fluorescence microscopy was then conducted to detail the intracellular localization of probe 4. […]
After 12 hours of incubation, the blue fluorescence from probe 4 was vesiculated (FIG. 2d). […] In particular, the overlap of red fluorescence from the red lysosome stain, LysoTracker Red DND-99, and the blue fluorescence from probe 4 provided strong evidence in support of this observation (FIG. 2f).

Assay [3] deals with HCT-116 cells. Put plainly: cell cycle effects by FACS analysis. As to conditions: FIG. 3a-c, 50 μM. On the procedure: The results of the study of the activity are discussed below with the reference to FIG. 3. […] Further, FIG. 3a illustrates cell cycle response for unsyncronized HCT-116 cells, FIG. 3b for HCT-116 cells synchronized and treated at G0 and incubated for 12 hours, and FIG. 3c, for HCT-116 cells synchronized and treated at S and incubated for 12 hours.
The effects of probe 4 on cell cycle were evaluated using FACS analysis.

The mark [4] stands for this setting: HCT-116, read-out: cytotoxicity IC50 values.
[5] abbreviates: HCT-116, read-out: in vitro cytotoxicity IC50.

pIC50: −log10 of the molar value. Like-named read-outs stand apart in the source and are kept apart here.

Consider `CN1C(=S)c2cc(C(N)=O)nc3c(N)c(Cl)c(N)c1c23` [Compound IA, ammosamide A], for which the negative logarithm of the IC50 (pIC50) in assay [1] (setting [4]) was over 6.00; in assay [1] (setting [5]), 6.49. For the same compound, in assay [2], the “effect of pretreatment on uptake of probe 4” value is “blocked the uptake of probe 4”. Also, the “cell cycle data relative to probe 4” value in assay [3] is “Comparable cell cycles data”.
As for `CN1C(=O)c2cc(C(N)=O)nc3c(N)c(Cl)c(N)c1c23` [Compound IB, ammosamide B], the pIC50 was over 6.00 in assay [1] (setting [4]) and 6.49 in assay [1] (setting [5]).
